In the NIST ThermoML archive (doi:10.1021/je100801s):

Assays:
[1] = for Normal melting temperature: DTA
[2] = Molar enthalpy of transition or fusion; conditions: Crystal; DSC

NC(=O)c1cccc(F)c1 [3-fluorobenzamide]
[1]
Conditions	vapor or sublimation pressure [kPa]
323.1 K, Crystal, Calculated from knudsen effusion weight loss	9e-05
325.17 K, Crystal, Calculated from knudsen effusion weight loss	0.000114
327.18 K, Crystal, Calculated from knudsen effusion weight loss	0.000143
329.08 K, Crystal, Calculated from knudsen effusion weight loss	0.000183
331.13 K, Crystal, Calculated from knudsen effusion weight loss	0.000229
333.18 K, Crystal, Calculated from knudsen effusion weight loss	0.000286
336.83 K, Crystal, Closed cell (Static) method	0.00046
337.28 K, Crystal, Calculated from knudsen effusion weight loss	0.000461
339.17 K, Crystal, Calculated from knudsen effusion weight loss	0.000559
339.76 K, Crystal, Closed cell (Static) method	0.00063
341.08 K, Crystal, Calculated from knudsen effusion weight loss	0.000688
342.87 K, Crystal, Closed cell (Static) method	0.00089
343.13 K, Crystal, Calculated from knudsen effusion weight loss	0.000842
345.18 K, Crystal, Calculated from knudsen effusion weight loss	0.001032
345.87 K, Crystal, Closed cell (Static) method	0.0012
348.82 K, Crystal, Closed cell (Static) method	0.00166
351.66 K, Crystal, Closed cell (Static) method	0.00222
354.65 K, Crystal, Closed cell (Static) method	0.003
357.76 K, Crystal, Closed cell (Static) method	0.00407
360.59 K, Crystal, Closed cell (Static) method	0.00535
363.62 K, Crystal, Closed cell (Static) method	0.0071
366.55 K, Crystal, Closed cell (Static) method	0.00941
372.5 K, Crystal, Closed cell (Static) method	0.01592
375.47 K, Crystal, Closed cell (Static) method	0.02067
378.58 K, Crystal, Closed cell (Static) method	0.02712
382.58 K, Liquid, Closed cell (Static) method	0.0587
384.49 K, Crystal, Closed cell (Static) method	0.04471
387.47 K, Crystal, Closed cell (Static) method	0.05659
387.53 K, Liquid, Closed cell (Static) method	0.07955
390.45 K, Crystal, Closed cell (Static) method	0.07258
392.49 K, Liquid, Closed cell (Static) method	0.108
396.38 K, Crystal, Closed cell (Static) method	0.1148
397.43 K, Liquid, Closed cell (Static) method	0.1444
402.37 K, Liquid, Closed cell (Static) method	0.1895
407.27 K, Liquid, Closed cell (Static) method	0.2514
412.23 K, Liquid, Closed cell (Static) method	0.3264
417.16 K, Liquid, Closed cell (Static) method	0.4262
422.04 K, Liquid, Closed cell (Static) method	0.5472
427.02 K, Liquid, Closed cell (Static) method	0.7039
432 K, Liquid, Closed cell (Static) method	0.9006

Conditions	Normal melting temperature [°C]
[1], Crystal	128.43

Conditions	Molar enthalpy of transition or fusion [kcal/mol]
[2]	5.14

NC(=O)c1ccc(F)cc1 [4-fluorobenzamide]
[1], Closed cell (Static) method
Conditions	vapor or sublimation pressure [kPa]
344.79 K, Crystal	0.0007
347.76 K, Crystal	0.00097
350.74 K, Crystal	0.0013
353.73 K, Crystal	0.00174
356.7 K, Crystal	0.00236
359.68 K, Crystal	0.00313
362.66 K, Crystal	0.0041
365.63 K, Crystal	0.00535
368.61 K, Crystal	0.00699
371.58 K, Crystal	0.009
374.54 K, Crystal	0.01167
377.53 K, Crystal	0.015
380.48 K, Crystal	0.01934
383.47 K, Crystal	0.02445
386.43 K, Crystal	0.03134
392.35 K, Crystal	0.04995
395.33 K, Crystal	0.06299
398.28 K, Crystal	0.07872
401.25 K, Crystal	0.09854
404.24 K, Crystal	0.1266
407.22 K, Crystal	0.1568
410.16 K, Crystal	0.1944
410.2 K, Liquid	0.2629
412.16 K, Liquid	0.2902
413.14 K, Crystal	0.2396
414.13 K, Liquid	0.3222
416.1 K, Crystal	0.2948
416.11 K, Liquid	0.3584
418.11 K, Liquid	0.3963
419.06 K, Crystal	0.3637
420.05 K, Liquid	0.4398
422.01 K, Crystal	0.4419
422.03 K, Liquid	0.4862
424.02 K, Liquid	0.5382
424.99 K, Crystal	0.538
426 K, Liquid	0.593
427.93 K, Liquid	0.6524
429.92 K, Liquid	0.719
431.89 K, Liquid	0.7879
433.87 K, Liquid	0.8708
435.84 K, Liquid	0.9508
437.82 K, Liquid	1.04

Conditions	Normal melting temperature [°C]
[1], Crystal	156.04

Conditions	Molar enthalpy of transition or fusion [kcal/mol]
[2]	4.66

NC(=O)c1ccccc1F [o-fluorobenzamide]
[1]
Conditions	vapor or sublimation pressure [kPa]
303.12 K, Crystal, Calculated from knudsen effusion weight loss	0.000102
305.21 K, Crystal, Calculated from knudsen effusion weight loss	0.00013
307.19 K, Crystal, Calculated from knudsen effusion weight loss	0.000166
309.12 K, Crystal, Calculated from knudsen effusion weight loss	0.000213
311.2 K, Crystal, Calculated from knudsen effusion weight loss	0.00027
313.29 K, Crystal, Calculated from knudsen effusion weight loss	0.000341
315.11 K, Crystal, Calculated from knudsen effusion weight loss	0.000429
317.2 K, Crystal, Calculated from knudsen effusion weight loss	0.00054
317.98 K, Crystal, Closed cell (Static) method	0.0006
319.18 K, Crystal, Calculated from knudsen effusion weight loss	0.000668
320.48 K, Crystal, Closed cell (Static) method	0.0008
321.11 K, Crystal, Calculated from knudsen effusion weight loss	0.000843
322.94 K, Crystal, Closed cell (Static) method	0.00105
323.18 K, Crystal, Calculated from knudsen effusion weight loss	0.001059
325.18 K, Crystal, Calculated from knudsen effusion weight loss	0.001295
325.41 K, Crystal, Closed cell (Static) method	0.00137
327.86 K, Crystal, Closed cell (Static) method	0.00175
330.38 K, Crystal, Closed cell (Static) method	0.00233
332.86 K, Crystal, Closed cell (Static) method	0.003
335.32 K, Crystal, Closed cell (Static) method	0.0038
337.75 K, Crystal, Closed cell (Static) method	0.00484
340.21 K, Crystal, Closed cell (Static) method	0.00617
342.7 K, Crystal, Closed cell (Static) method	0.00785
345.32 K, Crystal, Closed cell (Static) method	0.01002
350.2 K, Crystal, Closed cell (Static) method	0.01581
355.69 K, Crystal, Closed cell (Static) method	0.02544
357.75 K, Crystal, Closed cell (Static) method	0.03116
358.65 K, Liquid, Closed cell (Static) method	0.05979
360.13 K, Crystal, Closed cell (Static) method	0.03777
361.55 K, Liquid, Closed cell (Static) method	0.07225
362.71 K, Crystal, Closed cell (Static) method	0.04753
364.59 K, Liquid, Closed cell (Static) method	0.08814
365.1 K, Crystal, Closed cell (Static) method	0.05735
367.55 K, Liquid, Closed cell (Static) method	0.1048
370.04 K, Crystal, Closed cell (Static) method	0.08597
370.55 K, Liquid, Closed cell (Static) method	0.126
372.63 K, Crystal, Closed cell (Static) method	0.1058
375.47 K, Liquid, Closed cell (Static) method	0.1688
377.6 K, Crystal, Closed cell (Static) method	0.1572
380.43 K, Liquid, Closed cell (Static) method	0.225
385.38 K, Liquid, Closed cell (Static) method	0.2972
391.35 K, Liquid, Closed cell (Static) method	0.4081
394.82 K, Liquid, Closed cell (Static) method	0.4892
397.41 K, Liquid, Closed cell (Static) method	0.5572
399.81 K, Liquid, Closed cell (Static) method	0.6302
402.34 K, Liquid, Closed cell (Static) method	0.7124
404.79 K, Liquid, Closed cell (Static) method	0.8064
407.26 K, Liquid, Closed cell (Static) method	0.9115
409.66 K, Liquid, Closed cell (Static) method	1.024
412.16 K, Liquid, Closed cell (Static) method	1.147

Conditions	Normal melting temperature [°C]
[1], Crystal	115.34

Conditions	Molar enthalpy of transition or fusion [kcal/mol]
[2]	4.95
